The source of these data is US9441238B2, “Compositions and methods for modulating the sensitivity of cells to AHAS inhibitors” (SYNTHETIC GENOMICS, INC., priority 2012, dated 2016).

One assay relates to AHAS. To be noted: previously reported, several organisms; cited from earlier work.
A further assay relates to Nannochloropsis sp. The experiment in a line: Growth inhibition of Nannochloropsis by herbicide in growth media. The class given is cell-based.

Consider `COC(=O)c1ccccc1S(=O)(=O)NC(=O)Nc1nc(C)nc(OC)n1` [metsulfuron methyl], for which, in the assay on AHAS, the “inhibitor of AHAS activity” value is listed as “potent inhibitor”. In the assay with Nannochloropsis sp., the “growth of Nannochloropsis sp.” value is given as “strongly inhibited”. Further, the “concentration that could be used to effectively suppress wild-type growth” value with Nannochloropsis sp. (wild-type) came to 30 µM.
